# Laboratory results taken from patent US20080207683A1, “BIARYL-S[…]-PYRAZOLO-PYRIDINE MODULATORS OF CATHEPSIN S” (priority 2007, published 2008).
# Target: T1, Human CatS (Homo sapiens, UniProt P25774)
# T1 construct: made in house; host or cells: Sf9 insect cells (baculovirus vector pFB+HT)
# Experiment: CatS inhibition of hydrolysis of fluorescent substrate Z-Val-Val-Arg-AFC
# Type: biochemical
# Conditions: not given
# Method: Human CatS was cloned into pFB+HT (from Stratagene clone), expressed in Sf9 cells, and purified over a Ni column. Fractions were concentrated and activated at pH 4.0 for 6 hr and then purified over a thiopropylsepharose column and eluted with 1×TBS, 500 mM NaCl, 1 mM EDTA, 25 mM DTT pH 7.6. Glycerol (50%) was added in a 1:1 (vol/vol) ratio (25% glycerol final) and protein was stored at −80° C. in 5 μL aliquots. […] The increase in fluorescence over time was monitored using λexcitation=400 nm and λemission=505 nm.
# In equation 1, v is the initial rate measured in the presence of [I]0, the inhibitor concentration, using an enzyme concentration [E]0. v0 is the initial rate measured in the absence of inhibitor.
# T1 sequence (P25774 115-331): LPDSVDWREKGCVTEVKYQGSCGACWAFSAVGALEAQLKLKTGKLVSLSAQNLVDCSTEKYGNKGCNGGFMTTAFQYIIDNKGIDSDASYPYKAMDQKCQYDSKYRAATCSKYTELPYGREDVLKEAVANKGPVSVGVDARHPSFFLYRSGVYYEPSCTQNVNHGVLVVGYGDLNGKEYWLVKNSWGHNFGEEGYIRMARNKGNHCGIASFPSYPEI
row,Ki [nM],SMILES
1,330,"CS(=O)(=O)N1CCc2c(c(-c3ccc(Cl)c(-c4cccc(C(=O)NCc5cc6ccccc6[nH]5)c4)c3)nn2CCCN2CCCC2)C1 [Example 13, 2′-Chloro-5′-[5-methanesulfonyl-1-(3-pyrrolidin-1-yl-propyl)-4,5,6,7-tetrahydro-1H-pyrazolo[4,3-c]pyridin-3-yl]-biphenyl-3-carboxylic acid (1H-indol-2-ylmethyl)-amide]"
2,450,"COc1ccc(CNC(=O)c2cccc(-c3cc(-c4nn(CCCN5CCCC5)c5c4CN(S(C)(=O)=O)CC5)ccc3Cl)c2)cc1 [Example 15, 2′-Chloro-5′-[5-methanesulfonyl-1-(3-pyrrolidin-1-yl-propyl)-4,5,6,7-tetrahydro-1H-pyrazolo[4,3-c]pyridin-3-yl]-biphenyl-3-carboxylic acid 4-methoxy-benzylamide]"

# Same assay, conditions: apparent Ki, Morrison equation fit of initial rates; 10 μM Z-Val-Val-Arg-AFC, pH 5.0, 1.5 nM CatS; read-out: CatS Ki^app
row,Ki [nM],SMILES
1,135,"CN(C)S(=O)(=O)c1ccc2c(c1)N(CCNC(=O)c1cccc(-c3cc(-c4nn(CCCN5CCCC5)c5c4CN(S(C)(=O)=O)CC5)ccc3Cl)c1)CC2 [Example 11, 2′-Chloro-5′-[5-methanesulfonyl-1-(3-pyrrolidin-1-yl-propyl)-4,5,6,7-tetrahydro-1H-pyrazolo[4,3-c]pyridin-3-yl]-biphenyl-3-carboxylic acid [2-(6-dimethylsulfamoyl-2,3-dihydro-indol-1-yl)-ethyl]-amide]"
2,38.5,"CC(=O)N1CCc2c(c(-c3ccc(Cl)c(-c4cccc(C(=O)N[C@@H](C)c5nc6cc(F)c(F)cc6[nH]5)c4)c3)nn2CCCN2CCCC2)C1 [Example 37, (S)-5′-[5-Acetyl-1-(3-pyrrolidin-1-yl-propyl)-4,5,6,7-tetrahydro-1H-pyrazolo[4,3-c]pyridin-3-yl]-2′-chloro-biphenyl-3-carboxylic acid [1-(5,6-difluoro-1H-benzoimidazol-2-yl)-ethyl]-amide]"
3,240,"CS(=O)(=O)N1CCc2c(c(-c3ccc(Cl)c(-c4cccc(C(=O)NCc5ncco5)c4)c3)nn2CCCN2CCCC2)C1 [Example 12, 2′-Chloro-5′-[5-methanesulfonyl-1-(3-pyrrolidin-1-yl-propyl)-4,5,6,7-tetrahydro-1H-pyrazolo[4,3-c]pyridin-3-yl]-biphenyl-3-carboxylic acid (oxazol-2-ylmethyl)-amide]"
4,37,"CC(=O)N1CCc2c(c(-c3ccc(Cl)c(-c4cccc(C(=O)NC(C)c5nc6cc(C)ccc6[nH]5)c4)c3)nn2CCCN2CCCC2)C1 (stereo not drawn) [Example 39, 5′-[5-Acetyl-1-(3-pyrrolidin-1-yl-propyl)-4,5,6,7-tetrahydro-1H-pyrazolo[4,3-c]pyridin-3-yl]-2′-chloro-biphenyl-3-carboxylic acid [1-(5-methyl-1H-benzoimidazol-2-yl)-ethyl]-amide]"
5,72.3,"CS(=O)(=O)N1CCc2c(c(-c3ccc(Cl)c(-c4cccc(C(=O)NCc5nc6ccccc6s5)c4)c3)nn2CCCN2CCC(N3CCCC3=O)CC2)C1 [Example 34, 2′-Chloro-5′-(5-methanesulfonyl-1-{3-[4-(2-oxo-pyrrolidin-1-yl)-piperidin-1-yl]-propyl}-4,5,6,7-tetrahydro-1H-pyrazolo[4,3-c]pyridin-3-yl)-biphenyl-3-carboxylic acid (benzothiazol-2-ylmethyl)-amide]"
6,41.7,"Cc1ccc(NCCNC(=O)c2cccc(-c3cc(-c4nn(CCCN5CCC(O)C5)c5c4CNCC5)ccc3Cl)c2)cc1C (stereo not drawn) [Example 42, 2′-Chloro-5′-{1-[3-(3-hydroxy-pyrrolidin-1-yl)-propyl]-4,5,6,7-tetrahydro-1H-pyrazolo[4,3-c]pyridin-3-yl}-biphenyl-3-carboxylic acid [2-(3,4-dimethyl-phenylamino)-ethyl]-amide]"
7,163,"CS(=O)(=O)N1CCc2c(c(-c3ccc(Cl)c(-c4cccc(C(=O)NCCN5CCc6ccc(F)cc65)c4)c3)nn2CCCN2CCC(N3CCCC3=O)CC2)C1 [Example 33, 2′-Chloro-5′-(5-methanesulfonyl-1-{3-[4-(2-oxo-pyrrolidin-1-yl)-piperidin-1-yl]-propyl}-4,5,6,7-tetrahydro-1H-pyrazolo[4,3-c]pyridin-3-yl)-biphenyl-3-carboxylic acid [2-(6-fluoro-2,3-dihydro-indol-1-yl)-ethyl]-amide]"
8,325,"CS(=O)(=O)N1CCc2c(c(-c3ccc(Cl)c(-c4cccc(C(=O)NCc5nc6ccccc6s5)c4)c3)nn2CCCN2CCC(O)C2)C1 (stereo not drawn) [Example 30, 2′-Chloro-5′-{1-[3-(3-hydroxy-pyrrolidin-1-yl)-propyl]-5-methanesulfonyl-4,5,6,7-tetrahydro-1H-pyrazolo[4,3-c]pyridin-3-yl}-biphenyl-3-carboxylic acid (benzothiazol-2-ylmethyl)-amide]"
9,712,"COc1ccc(NC(=O)CNC(=O)c2cccc(-c3cc(-c4nn(CCCN5CCCC5)c5c4CN(S(C)(=O)=O)CC5)ccc3Cl)c2)cc1 [Example 26, 2′-Chloro-5′-[5-methanesulfonyl-1-(3-pyrrolidin-1-yl-propyl)-4,5,6,7-tetrahydro-1H-pyrazolo[4,3-c]pyridin-3-yl]-biphenyl-3-carboxylic acid [(4-methoxy-phenylcarbamoyl)-methyl]-amide]"
10,125,"CCC(NC(=O)c1cccc(-c2cc(-c3nn(CCCN4CCCC4)c4c3CN(S(C)(=O)=O)CC4)ccc2Cl)c1)c1nc2cc(C)ccc2[nH]1 (stereo not drawn) [Example 17, 2′-Chloro-5′-[5-methanesulfonyl-1-(3-pyrrolidin-1-yl-propyl)-4,5,6,7-tetrahydro-1H-pyrazolo[4,3-c]pyridin-3-yl]-biphenyl-3-carboxylic acid [1-(5-methyl-1H-benzoimidazol-2-yl)-propyl]-amide]"
11,70.3,"CS(=O)(=O)N1CCc2c(c(-c3ccc(Cl)c(-c4cccc(C(=O)NCc5nc6cc(Cl)ccc6[nH]5)c4)c3)nn2CCCN2CCCC2)C1 [Example 21, 2′-Chloro-5′-[5-methanesulfonyl-1-(3-pyrrolidin-1-yl-propyl)-4,5,6,7-tetrahydro-1H-pyrazolo[4,3-c]pyridin-3-yl]-biphenyl-3-carboxylic acid (5-chloro-1H-benzoimidazol-2-ylmethyl)-amide]"
12,430,"COc1ccc(CNC(=O)c2cccc(-c3cc(-c4nn(CCCN5CCCC5)c5c4CN(C(C)=O)CC5)ccc3Cl)c2)cc1 [Example 41, 5′-[5-Acetyl-1-(3-pyrrolidin-1-yl-propyl)-4,5,6,7-tetrahydro-1H-pyrazolo[4,3-c]pyridin-3-yl]-2′-chloro-biphenyl-3-carboxylic acid 4-methoxy-benzylamide]"
13,48.5,"CC(C)c1ccc(NCCNC(=O)c2cccc(-c3cc(-c4nn(CCCN5CCC(O)C5)c5c4CNCC5)ccc3Cl)c2)cc1 (stereo not drawn) [Example 43, 2′-Chloro-5′-{1-[3-(3-hydroxy-pyrrolidin-1-yl)-propyl]-4,5,6,7-tetrahydro-1H-pyrazolo[4,3-c]pyridin-3-yl}-biphenyl-3-carboxylic acid [2-(4-isopropyl-phenylamino)-ethyl]-amide]"
14,350,"CS(=O)(=O)N1CCc2c(c(-c3ccc(Cl)c(-c4cccc(C(=O)NCc5cccs5)c4)c3)nn2CCCN2CCCC2)C1 [Example 14, 2′-Chloro-5′-[5-methanesulfonyl-1-(3-pyrrolidin-1-yl-propyl)-4,5,6,7-tetrahydro-1H-pyrazolo[4,3-c]pyridin-3-yl]-biphenyl-3-carboxylic acid (thiophen-2-ylmethyl)-amide]"
15,175,"C[C@@H](NC(=O)c1cccc(-c2cc(-c3nn(CCCN4CCCC4)c4c3CN(S(C)(=O)=O)CC4)ccc2Cl)c1)c1nc(-c2ccccc2)cs1 [Example 24, (R)-2′-Chloro-5′-[5-methanesulfonyl-1-(3-pyrrolidin-1-yl-propyl)-4,5,6,7-tetrahydro-1H-pyrazolo[4,3-c]pyridin-3-yl]-biphenyl-3-carboxylic acid [1-(4-phenyl-thiazol-2-yl)-ethyl]-amide]"
16,225,"CN(C)S(=O)(=O)c1cccc2c1N(CCNC(=O)c1cccc(-c3cc(-c4nn(CCCN5CCC(O)C5)c5c4CNCC5)ccc3Cl)c1)CC2 (stereo not drawn) [Example 45, 2′-Chloro-5′-{1-[3-(3-hydroxy-pyrrolidin-1-yl)-propyl]-4,5,6,7-tetrahydro-1H-pyrazolo[4,3-c]pyridin-3-yl}-biphenyl-3-carboxylic acid [2-(7-dimethylsulfamoyl-2,3-dihydro-indol-1-yl)-ethyl]-amide]"
17,24,"Cc1ccc2[nH]c(C(C)NC(=O)c3cccc(-c4cc(-c5nn(CCCN6CCCC6)c6c5CN(S(C)(=O)=O)CC6)ccc4Cl)c3)nc2c1 (stereo not drawn) [Example 16, 2′-Chloro-5′-[5-methanesulfonyl-1-(3-pyrrolidin-1-yl-propyl)-4,5,6,7-tetrahydro-1H-pyrazolo[4,3-c]pyridin-3-yl]-biphenyl-3-carboxylic acid [1-(5-methyl-1H-benzoimidazol-2-yl)-ethyl]-amide]"
18,269,"CS(=O)(=O)N1CCc2c(c(-c3ccc(Cl)c(-c4cccc(C(=O)NCc5nccs5)c4)c3)nn2CCCN2CCCC2)C1 [Example 19, 2′-Chloro-5′-[5-methanesulfonyl-1-(3-pyrrolidin-1-yl-propyl)-4,5,6,7-tetrahydro-1H-pyrazolo[4,3-c]pyridin-3-yl]-biphenyl-3-carboxylic acid (thiazol-2-ylmethyl)-amide]"
19,22.6,"CC(NC(=O)c1cccc(-c2cc(-c3nn(CCCN4CCCC4)c4c3CN(S(C)(=O)=O)CC4)ccc2Cl)c1)c1nc2ccccc2[nH]1 (stereo not drawn) [Example 18, 2′-Chloro-5′-[5-methanesulfonyl-1-(3-pyrrolidin-1-yl-propyl)-4,5,6,7-tetrahydro-1H-pyrazolo[4,3-c]pyridin-3-yl]-biphenyl-3-carboxylic acid [1-(1H-benzoimidazol-2-yl)-ethyl]-amide]"
